Results as given in patent US20100204090A1, “USE OF A PEPTIDE AS A THERAPEUTIC AGENT” (priority 2007, published 2010).
Bridge positions count the residues as written; N and C are the ends. Peptide text beside a SMILES is read from it.

Assays:
[1] = test system: HepG2-2.2.15 cells; assay: Cell viability (dye uptake) in the HBV assay; assay type: cell-based; settings: peptide 10 micrograms per ml, % cell control
[2] = test system: MRC-5 cells; settings: human, 6 days
[3] = test system: hepatitis B virus (HBV) ayw strain; assay: HBV replication assay in HepG2-2.2.15 cells (secreted HBV DNA, TaqMan PCR); assay type: cell-based; settings: peptide 10 micrograms per ml; six days; HBV DNA in supernatant, % virus control
[4] = Cell viability (dye uptake) in the HBV assay; assay type: cell-based; settings: human, HepG2-2.2.15 cells (stable line containing HBV ayw genome), peptide 10 micrograms per ml, % cell control
[5] = test system: HCMV strain AD169; assay: HCMV plaque reduction assay in MRC-5 cells; assay type: cell-based, human cytomegalovirus; settings: HCMV AD169 in MRC-5 cells; peptide 10 micrograms per ml; 7-10 days
Description: Ganciclovir was used as positive control.

[6] = test system: A549 cells; assay: Propidium iodide cell cycle assay; assay type: cell-based, human; settings: peptide 10 micrograms per ml, 24 hours, FACS
[7] = test system: Human Peripheral Blood Mononuclear Cells (PBMC), T cell proliferation; assay: T cell proliferation assay (PHA-stimulated PBMC, 3H-thymidine); assay type: cell-based; settings: peptide 10 micrograms per ml, 3 days plus 12 hours 3H-thymidine
[8] = test system: Human Peripheral Blood Mononuclear Cells (PBMC), B cell proliferation; assay: B cell proliferation assay (SAC plus IL-2 stimulated PBMC, 3H-thymidine); assay type: cell-based; settings: peptide 10 micrograms per ml, 3 days plus 12 hours 3H-thymidine
[9] = test system: RAW 264.7 cells; assay: Phagocytosis assay (Fluorescein-labeled Escherichia coli, flow cytometry); assay type: cell-based, mouse; settings: peptide 10 micrograms per ml, 30 min preincubation, 60 min ingestion
[10] = test system: spleen cells of Ovalbumin-immunized Balb/c mice; assay: Th1/Th2 cytokine profiling assay (Ovalbumin-restimulated spleen cells, CBA kit); assay type: cell-based, mouse; settings: peptide 10 micrograms per ml; Ovalbumin 10 micrograms/ml restimulation; 72 hours
Description: The Balb/c mice (originated in 1923, it is a popular strain and is used in many different research disciplines. Also classified as an inbred from the production of 20 or more successive brother-sister matings, the Balb/c mouse is albino and small in size) were immunized on Days 1, 15, and 29 with Ovalbumin (Ovalbumin is the main protein found in egg white, commonly used to stimulate an immunological reaction in test animals) in PBS (5 micrograms/injection). On day 50, spleens of the mice were harvested (3 weeks after last boost with Ovalbumin). […] Thereafter, additional Ovalbumin was added to the cells at 10 micrograms/ml for in vitro restimulation of the cells. 72 hours later, cell supernatants were harvested and assayed using the Becton Dickinson Mouse Th1/Th2 Cytokine CBA Kit. This kit can be used to measure Interleukin-2 (IL-2), Interleukin-4 (IL-4), Interleukin-5 (IL-5), Interferon-γ (IFN-γ), and Tumor Necrosis Factor-α (TNF-α) protein levels in a single sample.

[11] = test system: TNF alpha production in PBMC-derived macrophages; assay: TNF alpha production assay (LPS-stimulated macrophages, ELISA); assay type: cell-based, human; settings: peptide 10 micrograms per ml, lipopolysaccharide 200 ng/ml, overnight
Description: Not stimulated macrophages served as negative background control.

[12] = test system: Primary Human endothelial cells (HUVEC); assay: Endothelial cell migration assay; assay type: cell-based; settings: peptide 10 micrograms per ml, 22 hours
[13] = test system: HUVEC; assay: Endothelial tube formation assay; assay type: cell-based, human; settings: peptide 10 micrograms per ml, 20 hours
Description: Positive control was vehicle only.

[14] = Cytotoxicity testing in MRC-5 cells (CellTiter 96); settings: human, MRC-5 cells (embryonal lung fibroblasts)
[15] = human, cells plus peptide only

Nc1ccn([C@@H]2CS[C@H](CO)O2)c(=O)n1 [Compound 3TC, Lamivudine, reference compound]
% Cell viability [1]: 95.8%

Nc1nc(O)c2ncn(COC(CO)CO)c2n1 [Ganciclovir]
% Cell viability [2]: 100%

CC[C@H](C)[C@@H]1NC(=O)CNC(=O)[C@H](CCCNC(=N)N)NC(=O)CNC(=O)[C@@H]2CSSC[C@H](NC1=O)C(=O)N[C@@H](CCCNC(=N)N)C(=O)N[C@H]1CSSC[C@H](NC(=O)[C@H](CCCNC(=N)N)NC(=O)[C@@H]3CSSC[C@H](NC(=O)[C@H]([C@@H](C)CC)NC1=O)C(=O)NCC(=O)N[C@@H](CCCNC(=N)N)C(=O)NCC(=O)N[C@@H]([C@@H](C)CC)C(=O)N3)C(=O)N[C@@H]([C@@H](C)CC)C(=O)N2 [Retrocyclin-1] (cyclo(GICRCICGRGICRCICGR); disulfide 3-16, 5-14, 7-12 (inferred); ring closure inferred)
% inhibition of HBV replication in HEP G2 cells [3]: 72.2%
viability at 144 h, 10 micrograms per ml [4]: 78.5%
% plaque reduction [5]: 25.8%
Cell cycle analysis G0/G1 [6]: 55.3
Cell cycle analysis G2/M [6]: 12.1
Cell cycle analysis S [6]: 32.6
% of PHA induced control [7]: 81.6%
% of SAC/IL2 induced control [8]: 85.0%
% of control phagocytosis [9]: 79.4%
IFNγ spleen cells; TH1 response (% of control) [10]: 137.6 % of control
IL-2 spleen cells (% of control) [10]: 157.7 % of control
IL-4 spleen cells; TH2 response (% of control) [10]: 67.1 % of control
IL-5 spleen cells; TH2 response (% of control) [10]: 80.7 % of control
TNF-a spleen cells; TH1 response (% of control) [10]: 152.5 % of control
% of LPS induction [11]: 115.1%
% inhibition of migration [12]: 8%
% inhibition of tube formation [13]: 100%
viability at 144 h [14]: 100%
viability at 10 micrograms per ml [15]: 89.3%
